Reference: US10413583B2, “Synthetic substrates for enzymes that catalyze reactions of modified cysteines and related methods” (The University of Chicago, priority 2016, dated 2019)

Test system: HEK293T cells
Experiment: Fluorescence imaging of RDP-1 and RDP-2 with HEK293T cells
Type: cell-based, human
Conditions: for change in depalmitoylation activity from RDP-1: 10 μM inhibitor 30 min
Experimental: HEK293T were plated with […] of DMEM (Gibco, Gaithersburg, Md., United States of America; High Glucose, Glutamax, 10% FBS) a four well chambered imaging dish (D35C4-20-1.5-N, Cellvis, Mountain View, Calif., United States of America) which were precoated with 4 μg Poly-D-lysine (30-70 kilodalton (KDa), Alfa Aesar, Haverhill, Mass., United States of America) for 2 h at room temperature or overnight at 4° C. and grown to ca. 80% confluence prior to imaging. 30 min before the addition of the RDP, the cell culture media was removed and cells were washed with 500 μL of serum-free DMEM (Gibco, Gaithersburg, Md., United States of America, High Glucose, Glutamax, no FBS). The media was then replaced with 500 μL of serum-free DMEM containing 100 nM Mitotracker Deep Red (Thermo Fisher Scientific, Waltham, Mass., United States of America; to assist in focusing and processing) and either 0.1% DMSO carrier as a control or Palm B, ML348, or ML349 in DMSO and incubated for 30 min at 37° C. and 5% CO2. The media was removed, the cells were washed with 500 μL of Live Cell Imaging Solution (Thermo Fisher Scientific, Waltham, Mass., United States of America), and 500 μL of 1 μM RDP-1 or RDP-2 along with the appropriate inhibitor or DMSO as control in Live Cell Imaging Solution was added to each well. After incubation for 10 min at 37° C. and 5% CO2, the cells were washed with 500 μL Live Cell Imaging Solution and 500 μL of Live Cell Imaging Solution containing DMSO or the appropriate inhibitor was added to the cells immediately before images were obtained on an inverted epi-fluorescence microscope (Olympus IX83; Olympus Corporation, Tokyo, Japan) attached with EMCCD camera (Photometrics EVOLVE™ Delta; Photometrics, Tucson, Ariz., United States of America) with 40× oil objective (N/A 1.3) for RDP-1 (excitation filter 1 430/24 nm, dichroic chroma 89007, emission filter 1 470/24 nm, exposure time 100 ms, EM gain 80, excitation filter 2 480/20 nm, dichroic chroma 49014, emission filter 2 575/40 nm, exposure time 70 ms, EM gain 50) or for RDP-2 (excitation filter 1 430/24 nm, dichroic chroma 89007, emission filter 1 470/24 nm, exposure time 70 ms, EM gain 50, excitation filter 2 480/20, dichroic chroma 49014, emission filter 2 575/40 nm, exposure time 50 ms, EM gain 30), brightfield (exposure time 50 ms, EM gain 30), and MitoTracker Deep Red: (excitation filter 640/30 nm, emission filter 705/72 nm, dichroic chroma 89016, exposure time 15 ms, EM gain 15). Analyses were performed in ImageJ as described below. Each experiment was repeated at least three separate times with identical results.
The probe channel data were expressed as a ratio of the blue channel divided by the green channel and normalized to the average fluorescence intensity of the control conditions. To eliminate errors from autofluorescence, the images were thresholded using the bluer channel images at the same minimum level that included the maximum number of cells in focus (as determined visually by the mitocondrial dye) while limiting the signal from areas where cells are not present. The average value of all nonzero pixels from the blue channel:green channel ratio image were calculated in ImageJ for three different measurements from each experiment. The percent deprotected was estimated by imaging RDP-1/2 in buffer (20 mM HEPES, 150 mM NaCl, 0.1% Triton X-100, pH 7.4, 0.1% DMSO) and for dye deprotected with 20 mM DTT in buffer (20 mM HEPES, 150 mM NaCl, 0.1% Triton X-100, pH 7.4, 0.1% DMSO) for 1 h at room temperature before aliquoted into individual tubes and stored at −80° C. A fresh aliquot of the solution was thawed for each experiment and diluted to 250 nM (RDP-1) or 500 nM (RDP-2) in buffer (20 mM HEPES, 150 mM NaCl, 0.1% Triton X-100, pH 7.4, 10 mM DTT) and allowed to equilibrate for 30 m before being imaged. […]

| Compound | decrease of measured depalmitoylation activity, RDP-1 (20 μM PalmB 30 min pretreatment, 1 μM RDP-1) | decrease of measured depalmitoylation activity, RDP-2 (20 μM PalmB 30 min pretreatment, 1 μM RDP-2) | increase in depalmitoylation activity, RDP-2 (5 μM ML349 30 min, 1 μM RDP-2) | change in depalmitoylation activity from RDP-1 (1 μM RDP-1) | decrease in depalmitoylation activity, RDP-2 (5 μM ML348 30 min, 1 μM RDP-2) |
| --- | --- | --- | --- | --- | --- |
| CCCCCCCCCC[C@@H]1C(=O)O[C@H]1CCc1ccc(OC)c(OC)c1 [PalmB, palmostatin B] | almost in half | almost in half |  |  |  |
| COc1ccc(N2CCN(C(=O)c3cc4c(s3)-c3ccccc3S(=O)(=O)C4)CC2)cc1 [ML349] |  |  | about 12% | slight increase |  |
| O=C(CN1CCN(C(=O)c2ccco2)CC1)Nc1cc(C(F)(F)F)ccc1Cl [ML348] |  |  |  | slight increase | about 30% |
